Test results reported in paper PMC10974533, “Cationicity Enhancement on the Hydrophilic Face of Ctriporin Significantly Reduces Its Hemolytic Activity and Improves the Antimicrobial Activity against Antibiotic-Resistant ESKAPE Pathogens” (Toxins, 2024).
Where a SMILES comes first, the peptide text is derived from it.

Columns and labels:
Format in all cases: cell-based
[1] = system: E. coli ATCC35218; experiment: MIC, broth dilution, standard strain; details: broth dilution (CLSI), MHB, 37 °C, 16–20 h
Experimental: (§1) The standard strains, including S. aureus ATCC29213 and ATCC25923, E. faecalis ATCC29212, E. coli ATCC25922 and ATCC35218, A. baumannii ATCC19606, K. pneumoniae ATCC700603, and P. aeruginosa ATCC27853, were purchased from the China Center of Type Culture Collection (CCTCC). The clinical strains of the ESKAPE pathogens were isolated from the affiliated hospitals of Hubei University of Medicine. All of them were stored at −80 °C before use. The drug sensitivities of the clinical strains were determined by the Kirby–Bauer test.
(§2) The MICs were determined using the broth dilution method according to the guidelines of the Clinical and Laboratory Standards Institute (CLSI), as described in the previous studies. Briefly, the bacterial cells were incubated in Mueller–Hinton broth (MHB, Oxoid, Basingstoke, UK) at 37 °C and 150 rpm to the mid-growth phase and diluted to achieve a final concentration of 5 × 10^5 colony-forming units per milliliter (CFU/mL). Then, the cells were mixed with each peptide in different concentrations (1, 2, 4, 8, 16, 32, and 64 μg/mL). […] All experiments were repeated at least three times.

[2] = system: S. aureus ATCC29213; experiment: MIC, broth dilution, standard strain; details: broth dilution (CLSI), MHB, 37 °C, 16–20 h
Experimental: as §1, §2

[3] = system: K. pneumoniae ATCC700603; experiment: MIC, broth dilution, standard strain; details: broth dilution (CLSI), MHB, 37 °C, 16–20 h
Experimental: as §1, §2

[4] = system: P. aeruginosa ATCC27853; experiment: MIC, broth dilution, standard strain; details: broth dilution (CLSI), MHB, 37 °C, 16–20 h
Experimental: as §1, §2

[5] = system: E. coli ATCC25922; experiment: MIC, broth dilution, standard strain; details: broth dilution (CLSI), MHB, 37 °C, 16–20 h
Experimental: as §1, §2

[6] = system: E. faecium ATCC29212; experiment: MIC, broth dilution, standard strain; details: broth dilution (CLSI), MHB, 37 °C, 16–20 h
Experimental: as §1, §2

[7] = system: A. baumannii ATCC19606; experiment: MIC, broth dilution, standard strain; details: broth dilution (CLSI), MHB, 37 °C, 16–20 h
Experimental: as §1, §2

[8] = system: S. aureus ATCC25923; experiment: MIC, broth dilution, standard strain; details: broth dilution (CLSI), MHB, 37 °C, 16–20 h
Experimental: as §1, §2

[9] = system: human red blood cells (hRBC); experiment: Hemolytic activity determination; details: 2% (v/v) hRBC, 37 °C, 1 h; for Hemolysis% at 256 μg/mL: 256 μg/mL peptide, OD540, 1% Triton X-100 = 100%, average ± standard error of three independent experiments
Experimental: Figure 2 Hemolytic activities of Ctriporin and its analogs against human red blood cells (hRBC). Hemolytic activities of Ctriporin (solid circle), CM1 (open circle), CM2 (open square), CM3 (upward triangle), CM4 (downward triangle), CM5 (half solid circle), CM6 (half solid square), and CM7 (half solid triangle), were measured against 2% (v/v) human red blood cells. The peptide concentrations are 0, 2, 4, 8, 16, 32, 64, 128, 256, and 512 μg/mL. The cells treated with 1% Triton X-100 were treated as 100% hemolysis. All experiments were repeated three times, and the data shown are the average ± standard error.
The hemolytic activities of the peptides were determined against human red blood cells (hRBCs). As described, sodium citrate-anticoagulated hRBCs were washed three times with 0.9% sodium chloride and diluted to a final concentration of 4% (v/v). Then, an equal volume of hRBC solutions was mixed with an equal volume of each peptide in a series of concentrations (0, 2, 4, 8, 16, 32, 64, 128, 256, and 512 μg/mL). After co-incubation at 37 °C for 1 h, the degree of hemolysis of the peptides was determined by detecting the release of hemoglobin from the damaged hRBCs by measuring the optical density at 540 nm (OD540). hRBCs in 0.9% sodium chloride and 1% Triton X-100 were considered 0% and 100% hemolysis, respectively. The results shown are the average ± standard error of data derived from three independent experiments. The percent hemolysis was calculated according to the following equation [53, 54]:Hemolysis (%) = 100 × (Asample − Ablank)/(Apositive − Ablank)

[10] = system: standard ESKAPE strains; details: broth dilution (CLSI), MHB, 37 °C, 16–20 h; range over all standard strains
Experimental: The ESKAPE pathogens represent the main threat to public health concerning antimicrobial resistance. Therefore, we first evaluated the antimicrobial activities of Ctriporin and its analogs against the standard ESKAPE strains. The minimum inhibitory concentration (MIC) was chosen as the index for the evaluation of each peptide’s activity. […] Note that the MICs of CM4 and CM7 are 4–32 and 8–32 μg/mL, respectively, indicating the existence of significant bacterial species deviations for the antimicrobial activity of these peptides. In addition, the replacement of specific residues, especially Pro^7, may harm the antimicrobial activities of the peptide.
as §1, §2

[11] = 5 × 10^5 CFU/mL, OD630, repeated at least three times

Row | Structure (SMILES) | MICs [1, 11] | MICs ([1]; value in parentheses) | MICs [2, 11] | MICs ([2]; value in parentheses) | MICs [3, 11] | MICs ([3]; value in parentheses) | MICs [4, 11] | MICs ([4]; value in parentheses) | MICs [5, 11] | MICs ([5]; value in parentheses) | MICs [6, 11] | MICs ([6]; value in parentheses) | MICs [7, 11] | MICs ([7]; value in parentheses) | MICs [8, 11] | MICs ([8]; value in parentheses) | Hemolysis% at 256 μg/mL [9] | MICs against the ESKAPE pathogens (range over the standard strains of Table 2) [10] | curve of hemolysis% vs. peptide concentration (Figure 2) ([9]; 0–512 μg/mL peptide, compared in words)
1 | CC[C@H](C)[C@H](NC(=O)[C@H](C)NC(=O)[C@H](CCCCN)NC(=O)[C@@H]1CCCN1C(=O)[C@@H](NC(=O)[C@H](CC(C)C)NC(=O)[C@H](CCCCN)NC(=O)[C@H](Cc1c[nH]c2ccccc12)NC(=O)[C@H](CC(C)C)NC(=O)[C@@H](N)Cc1ccccc1)[C@@H](C)CC)C(=O)N[C@@H](CO)C(=O)N[C@@H](C)C(=O)N[C@H](C(=O)N[C@H](C(=O)N[C@@H](CO)C(=O)N[C@@H](CC(C)C)C(=O)N[C@H](C(=O)N[C@@H](CCCCN)C(=O)N[C@@H](CCCCN)C(N)=O)[C@@H](C)CC)[C@@H](C)O)C(C)C [CM2] (H-FLWKLIPKAISAVTSLIKK-NH2; N-terminus assumed) | 8 µg/mL | 3.7 µM | 4 µg/mL | 1.9 µM | 16 µg/mL | 7.4 µM | 16 µg/mL | 7.4 µM | 4 µg/mL | 1.9 µM | 4 µg/mL | 1.9 µM | 4 µg/mL | 1.9 µM | 8 µg/mL | 3.7 µM | 74.3 ± 9.2% | – | –
2 | CC[C@H](C)[C@H](NC(=O)[C@H](C)NC(=O)[C@H](CCCCN)NC(=O)[C@@H]1CCCN1C(=O)[C@@H](NC(=O)[C@H](CC(C)C)NC(=O)[C@H](CCCCN)NC(=O)[C@H](Cc1c[nH]c2ccccc12)NC(=O)[C@H](CC(C)C)NC(=O)[C@@H](N)Cc1ccccc1)[C@@H](C)CC)C(=O)N[C@@H](CCCCN)C(=O)N[C@@H](C)C(=O)N[C@H](C(=O)N[C@H](C(=O)N[C@@H](CO)C(=O)N[C@@H](CC(C)C)C(=O)N[C@H](C(=O)N[C@@H](CCCCN)C(=O)N[C@@H](CCCCN)C(N)=O)[C@@H](C)CC)[C@@H](C)O)C(C)C [CM3] (H-FLWKLIPKAIKAVTSLIKK-NH2; N-terminus assumed) | 4 µg/mL | 1.8 µM | 4 µg/mL | 1.8 µM | 8 µg/mL | 3.6 µM | 8 µg/mL | 3.6 µM | 4 µg/mL | 1.8 µM | 4 µg/mL | 1.8 µM | 4 µg/mL | 1.8 µM | 4 µg/mL | 1.8 µM | 89.1 ± 12.1% | 4 to 8 µg/mL | –
3 | CC[C@H](C)[C@H](NC(=O)[C@H](C)NC(=O)CNC(=O)[C@@H]1CCCN1C(=O)[C@@H](NC(=O)[C@H](CC(C)C)NC(=O)[C@H](CCCCN)NC(=O)[C@H](Cc1c[nH]c2ccccc12)NC(=O)[C@H](CC(C)C)NC(=O)[C@@H](N)Cc1ccccc1)[C@@H](C)CC)C(=O)N[C@@H](CO)C(=O)N[C@@H](C)C(=O)N[C@H](C(=O)N[C@H](C(=O)N[C@@H](CO)C(=O)N[C@@H](CC(C)C)C(=O)N[C@H](C(=O)N[C@@H](CCCCN)C(=O)N[C@@H](CCCCN)C(N)=O)[C@@H](C)CC)[C@@H](C)O)C(C)C [CM1] (H-FLWKLIPGAISAVTSLIKK-NH2; N-terminus assumed) | 32 µg/mL | 15.4 µM | 8 µg/mL | 3.8 µM | 64 µg/mL | 30.7 µM | > 64 µg/mL | > 30.7 µM | 8 µg/mL | – | 16 µg/mL | 7.7 µM | 8 µg/mL | 3.8 µM | 16 µg/mL | 7.7 µM | 75.6 ± 10.1% | – | –
4 | CC[C@H](C)[C@H](NC(=O)[C@H](C)NC(=O)[C@H](CCCCN)NC(=O)[C@@H]1CCCN1C(=O)[C@@H](NC(=O)[C@H](CC(C)C)NC(=O)[C@H](CCCCN)NC(=O)[C@H](Cc1c[nH]c2ccccc12)NC(=O)[C@H](CC(C)C)NC(=O)[C@@H](N)Cc1ccccc1)[C@@H](C)CC)C(=O)N[C@@H](CCCCN)C(=O)N[C@@H](CCCCN)C(=O)N[C@H](C(=O)N[C@H](C(=O)N[C@@H](CO)C(=O)N[C@@H](CC(C)C)C(=O)N[C@H](C(=O)N[C@@H](CCCCN)C(=O)N[C@@H](CCCCN)C(N)=O)[C@@H](C)CC)[C@@H](C)O)C(C)C [CM4] (H-FLWKLIPKAIKKVTSLIKK-NH2; N-terminus assumed) | 16 µg/mL | 7.1 µM | 4 µg/mL | 1.8 µM | 32 µg/mL | 14.2 µM | 16 µg/mL | 7.1 µM | 8 µg/mL | 3.6 µM | 16 µg/mL | 7.1 µM | 4 µg/mL | 1.8 µM | 8 µg/mL | 3.6 µM | 14.0 ± 4.7% | 4 to 32 µg/mL | decreased dramatically compared with Ctriporin
